Measured values from ChEMBL document CHEMBL6134890, “Terminally Symmetric β-Turn Peptides for Multidrug-Resistant Bacterial Infections” (J Med Chem, 2025).
In brackets after ≈: the same amount, converted by molar mass. Activity calls are given as the source filed them. The calls are words filed in the database; no cut-off is given here.

What was measured:
Staphylococcus aureus [1] = test: Antimicrobial activity against Staphylococcus aureus ATCC 25923 assessed as reduction in bacterial growth by broth dilution method; type: functional
Staphylococcus aureus [2] = test: Antimicrobial activity against multi-drug resistant Staphylococcus aureus assessed as reduction in bacterial growth by broth dilution method; type: functional
[3] = tested on: Staphylococcus epidermidis; test: Antimicrobial activity against multi-drug resistant Staphylococcus epidermidis assessed as reduction in bacterial growth by broth dilution method; type: functional
Enterococcus faecalis = test: Antimicrobial activity against multi-drug resistant Enterococcus faecalis assessed as reduction in bacterial growth by broth dilution method; type: functional
Escherichia coli [4] = test: Antimicrobial activity against Escherichia coli ATCC 25922 assessed as reduction in bacterial growth by broth dilution method; type: functional
Escherichia coli [5] = test: Antimicrobial activity against multi-drug resistant Escherichia coli assessed as reduction in bacterial growth by broth dilution method; type: functional
Klebsiella pneumoniae = test: Antimicrobial activity against multi-drug resistant Klebsiella pneumoniae assessed as reduction in bacterial growth by broth dilution method; type: functional
Acinetobacter baumannii = test: Antimicrobial activity against multi-drug resistant Acinetobacter baumannii assessed as reduction in bacterial growth by broth dilution method; type: functional
Escherichia coli [6] = test: Drug resistance, ratio of MIC for Escherichia coli ATCC 25922 after 15 passages exposure to MIC for Escherichia coli ATCC 25922 after first exposure; type: functional
Staphylococcus aureus [7] = test: Drug resistance, ratio of MIC for Staphylococcus aureus ATCC 25923 after 15 passages exposure to MIC for Staphylococcus aureus ATCC 25923 after first exposure; type: functional
Escherichia coli [8] = test: Antibacterial activity against Escherichia coli ATCC 25922 infected in male Kunming mouse model assessed as reduction in bacterial load measured after 11 days; type: functional, organism-based; conditions: time 11.0 day
Escherichia coli [9] = test: Antibacterial activity against multidrug resistant Escherichia coli infected in male Kunming mouse model assessed as recovery of mouse weight measured after 11 days; type: functional, organism-based; conditions: time 11.0 day
Escherichia coli [10] = test: Antibacterial activity against multidrug resistant Escherichia coli infected in male Kunming mouse model assessed as reduction in wound size measured after 3 to 5 days by caliper method; type: functional, organism-based; conditions: time 3-5 day
Escherichia coli [11] = test: Antibacterial activity against multidrug resistant Escherichia coli infected in male Kunming mouse model assessed as scabs thickening measured after 7 days by caliper method; type: functional, organism-based; conditions: time 7.0 day
Escherichia coli [12] = test: Antibacterial activity against multidrug resistant Escherichia coli infected in male Kunming mouse model assessed as wound healing measured after 11 days by caliper method; type: functional, organism-based; conditions: time 11.0 day
Escherichia coli [13] = test: Antibacterial activity against multidrug resistant Escherichia coli infected in male Kunming mouse model assessed as reduction in epidermal thickening by H and E staining based analysis; type: functional, organism-based
Escherichia coli [14] = test: Antibacterial activity against multidrug resistant Escherichia coli infected in male Kunming mouse model assessed as reduction in tissue hemorrhage by H and E staining based analysis; type: functional, organism-based
Escherichia coli [15] = test: Antibacterial activity against multidrug resistant Escherichia coli infected in male Kunming mouse model assessed as inflammatory cell infiltration by H and E staining based analysis; type: functional, organism-based
Escherichia coli [16] = test: Antibacterial activity against multidrug resistant Escherichia coli infected in male Kunming mouse model assessed as reduction in IL-6 expression by immunochemical analysis; type: functional, organism-based
[17] = Hemolytic activity in human Red blood cell assessed as hemolysis incubated for 1 hrs by microplate reader based analysis; type: toxicity; conditions: erythrocyte
HEK-293T = test: Cytotoxicity against HEK293T cells at 256 uM measured after 24 hrs by CCK-8 method relative to control; type: toxicity, cell-based; conditions: human
L02 = test: Cytotoxicity against human LO2 cells at 256 uM measured after 24 hrs by CCK-8 method relative to control; type: toxicity, cell-based; conditions: l02, 24 h

CC1(C)S[C@@H]2[C@H](NC(=O)[C@H](N)c3ccc(O)cc3)C(=O)N2[C@H]1C(=O)O [AMOXICILLIN]
MIC (Staphylococcus aureus [1]): 0.25 µM (≈ 0.0914 µg/mL)
MIC (Staphylococcus aureus [2]): 64 µM (≈ 23.4 µg/mL)
MIC [3]: 128 µM (≈ 46.8 µg/mL)
MIC (Enterococcus faecalis): 64 µM (≈ 23.4 µg/mL)
MIC (Escherichia coli [4]): 4 µM (≈ 1.46 µg/mL)
MIC (Escherichia coli [5]): > 256 µM
MIC (Klebsiella pneumoniae): > 256 µM
MIC (Acinetobacter baumannii): 128 µM (≈ 46.8 µg/mL)
fold change (FC) (Escherichia coli [6]): 8
fold change (FC) (Staphylococcus aureus [7]): 64

C[C@H]1COc2c(N3CCN(C)CC3)c(F)cc3c(=O)c(C(=O)O)cn1c23 [LEVOFLOXACIN ANHYDROUS]
MIC (Staphylococcus aureus [1]): 0.25 µM (≈ 0.0903 µg/mL)
MIC (Staphylococcus aureus [2]): 0.25 µM (≈ 0.0903 µg/mL)
MIC [3]: 8 µM (≈ 2.89 µg/mL)
MIC (Enterococcus faecalis): 32 µM (≈ 11.6 µg/mL)
MIC (Escherichia coli [4]): 2 µM (≈ 0.723 µg/mL)
MIC (Escherichia coli [5]): 64 µM (≈ 23.1 µg/mL)
MIC (Klebsiella pneumoniae): 64 µM (≈ 23.1 µg/mL)
MIC (Acinetobacter baumannii): > 256 µM
Activity (Escherichia coli [8]): Active
Activity (Escherichia coli [9]): Active
Activity (Escherichia coli [10]): Active
Activity (Escherichia coli [11]): Active
Activity (Escherichia coli [12]): inactive
Activity (Escherichia coli [13]): inactive
Activity (Escherichia coli [14]): inactive
Activity (Escherichia coli [15]): inactive
Activity (Escherichia coli [16]): inactive

CO[C@H]1/C=C/O[C@@]2(C)Oc3c(C)c(O)c4c(O)c(c(/C=N/N5CCN(C)CC5)c(O)c4c3C2=O)NC(=O)/C(C)=C\C=C\[C@H](C)[C@H](O)[C@@H](C)[C@@H](O)[C@@H](C)[C@H](OC(C)=O)[C@@H]1C [RIFAMPIN]
MIC (Staphylococcus aureus [1]): 0.5 µM (≈ 0.411 µg/mL)
MIC (Staphylococcus aureus [2]): 0.5 µM (≈ 0.411 µg/mL)
MIC [3]: 2 µM (≈ 1.65 µg/mL)
MIC (Enterococcus faecalis): 4 µM (≈ 3.29 µg/mL)
MIC (Escherichia coli [4]): 8 µM (≈ 6.58 µg/mL)
MIC (Escherichia coli [5]): 64 µM (≈ 52.7 µg/mL)
MIC (Klebsiella pneumoniae): 16 µM (≈ 13.2 µg/mL)
MIC (Acinetobacter baumannii): 16 µM (≈ 13.2 µg/mL)
fold change (FC) (Escherichia coli [6]): 8
fold change (FC) (Staphylococcus aureus [7]): 64

CN[C@H](CC(C)C)C(=O)N[C@H]1C(=O)N[C@@H](CC(N)=O)C(=O)N[C@H]2C(=O)N[C@H]3C(=O)N[C@H](C(=O)N[C@H](C(=O)O)c4cc(O)cc(O)c4-c4cc3ccc4O)[C@H](O)c3ccc(c(Cl)c3)Oc3cc2cc(c3O[C@@H]2O[C@H](CO)[C@@H](O)[C@H](O)[C@H]2O[C@H]2C[C@](C)(N)[C@H](O)[C@H](C)O2)Oc2ccc(cc2Cl)[C@H]1O [VANCOMYCIN]
MIC (Staphylococcus aureus [1]): 1 µM (≈ 1.45 µg/mL)
MIC (Staphylococcus aureus [2]): 1 µM (≈ 1.45 µg/mL)
MIC [3]: 2 µM (≈ 2.9 µg/mL)
MIC (Enterococcus faecalis): > 256 µM
MIC (Escherichia coli [4]): 256 µM (≈ 371 µg/mL)
MIC (Escherichia coli [5]): > 256 µM
MIC (Klebsiella pneumoniae): > 256 µM
MIC (Acinetobacter baumannii): > 256 µM
HC10 [17]: > 256 µM
Activity (HEK-293T): 75%
Activity (L02): 75%
